Read-outs that look alike come from different tables or passages of the source.
Key:
[1] = biological target: T1, isolated rat TrxR1 (rat liver TrxR) (Rattus norvegicus, UniProt O89049); experiment: Inhibition of purified TrxR (DTNB reduction); type: biochemical; settings: isolated enzyme, 75 min 37 °C preincubation; mean ± SD, three measurements
T1 construct: Commercially available rat liver TrxR; purchased Sigma Aldrich; host or cells: rat liver
T1 sequence (O89049 1-499): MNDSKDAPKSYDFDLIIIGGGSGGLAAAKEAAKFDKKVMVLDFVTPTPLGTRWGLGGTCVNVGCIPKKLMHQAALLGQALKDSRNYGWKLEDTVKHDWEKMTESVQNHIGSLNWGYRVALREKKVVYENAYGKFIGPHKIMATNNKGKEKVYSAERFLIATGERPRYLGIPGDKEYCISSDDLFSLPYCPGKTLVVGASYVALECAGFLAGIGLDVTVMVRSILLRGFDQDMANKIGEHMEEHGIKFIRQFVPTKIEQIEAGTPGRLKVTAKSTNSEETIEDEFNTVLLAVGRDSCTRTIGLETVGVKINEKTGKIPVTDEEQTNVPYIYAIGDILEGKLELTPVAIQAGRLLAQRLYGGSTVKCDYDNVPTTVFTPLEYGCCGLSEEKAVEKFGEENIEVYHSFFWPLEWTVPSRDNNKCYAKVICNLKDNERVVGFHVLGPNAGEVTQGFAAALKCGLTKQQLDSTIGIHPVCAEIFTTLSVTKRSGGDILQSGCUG
Experimental: The activity of TrxR [40, 54] was determined in a microplate format. Commercially available rat liver TrxR (Sigma Aldrich, St. Louis, MO, USA) was diluted with distilled water to 3.5 Unit/mL. In total, 25 μL aliquots of this solution were mixed with 25 μL of a potassium phosphate buffer, pH 7.0, with or without tested compounds. Fifty µL of 0.5% v/v dimethyl formamide in buffer was served as a blank. […] For this purpose, 25 µL of the highest test concentration of each compound and 25 µL of phosphate buffer (no enzyme) were mixed. Samples were incubated with moderate shaking for 75 min at 37 °C in a 96-well plate. To each well, 225 μL of the reaction mixture (500 μL of potassium phosphate buffer, pH 7.0, 80 μL of 100 mM ethylenediaminetetraacetic acid (EDTA), 20 μL of 0.2% bovine serum albumin, 100 μL of 20 mM NADPH (nicotinamide adenine dinucleotide phosphate), and 300 μL of water) was added; the reaction was initiated by the addition of 25 μL of 20 mM DTNB (5,5′-dithiobis(2-nitrobenzoic acid)) solution in ethanol. The formation of 5-TNB was monitored at 405 nm 10 times at 35 s intervals by a VICTOR X4 Plate Reader (Perkin Elmer). […] IC50 values were calculated as the concentration of the compound that decreased the enzymatic activity of the control (no compound) by 50%. Values are mean ± SD of the three independent measurements.

[2] = biological target: T2, TrxR1 in rat liver extracts (Rattus norvegicus, UniProt O89049); experiment: Inhibition of TrxR1 in rat liver extracts; type: biochemical; settings: for mechanism of inhibition: efficacy independent of DTNB concentration; for Ki: estimated according to the Cheng–Prusoff equation, read-out: Ki (inhibition constant); for IC50: rat liver extracts, read-out: TrxR1 IC50, µM (95% C.I.)
T2 construct: measured in the extracts from the liver of male white outbred rats; from tissue; host or cells: liver of male white outbred rats (homogenate supernatant)
T2 sequence (O89049 1-499): T1 sequence (O89049 1-499)
Experimental: The TrxR1 enzyme was measured in the extracts from the liver of male white outbred rats homogenised in 50 mM of PBS containing 1 mM of EDTA and centrifuged for 15 min at 10,000 rpm at 4 °C. The supernatant was adjusted to 7.5 µg/mL of protein as determined with pyrogallol red. Then, 40 μL of the enzyme solution was mixed with 10 μL of the test compounds in a 96-well clear flat bottom plate. After 10 min at 25 °C, 30 μL of PBS containing 0.7 mg/mL of BSA and 0.8 mM of NADPH was added. After 15 min at 25 °C, 20 µL of DTNB solution was added to the desired final concentrations. Kinetic studies were carried out by assaying TrxR1 at various concentrations of DTNB. The optical density of the samples was measured with an Infinite M200 Pro reader (Tecan, Grödig, Austria) at 412 nm every 30 s for 20 min. The activity of TrxR1 was calculated as a reaction slope relative to the control wells using Prism 8.0 (GraphPad, Inc., San Diego, CA, USA).

[3] = system: A549; experiment: Antiproliferative activity, MTT assay; type: cell-based, human; settings: MTT, 72 h exposure; mean ± SD; read-out: IC50, µM A549
Experimental: (§1) The antiproliferative activity of new ligands and complexes was determined against human cell lines, including colon adenocarcinoma SW480, breast adenocarcinoma MCF-7, lung adenocarcinoma A549, neuroblastoma SHSY5Y, and non-tumourigenic HaCaT (Table 4). In general, complexes were more cytotoxic compared to ligands, lonidamine, and, in some cases, cisplatin. […] We chose this compound and the synthetically accessible complex 16 for mechanistic studies.
(§2) The antiproliferative activity was studied by MTT assays as published previously. For flow cytometry studies, cells were plated into 6-well plates (Eppendorf, Germany; 4 × 10^5 cells in 2 mL of DMEM) and incubated for 24 h. Solutions of complexes in DMSO were prepared immediately prior to the day of the experiments. Cells were treated with either 20 µM of cisplatin, 50 µM of 16, or 20 µM of 20. Concentrations corresponded to two-fold IC50 values based on MTT assays. Cells were incubated for 24 h, pooled, washed with cold PBS, and resuspended in DMEM. Aliquots of cells were processed as recommended in the Muse Annexin V&Dead Cell Kit or Muse Caspase-3/7 Kit (Luminex). Measurements were carried out on a Muse Cell Analyser, Luminex corp., TX, USA.

[4] = system: MCF-7; experiment: Antiproliferative activity, MTT assay; type: cell-based, human; settings: MTT, 72 h exposure; mean ± SD; read-out: IC50, µM MCF-7
Experimental: as §1, §2

[5] = system: SH-SY5Y; experiment: Antiproliferative activity, MTT assay; type: cell-based, human; settings: 72 h exposure, mean ± SD
Experimental: as §1, §2

[6] = system: SW480; experiment: Antiproliferative activity, MTT assay; type: cell-based, human; settings: MTT, 72 h exposure; mean ± SD; read-out: IC50, µM SW480
Experimental: as §1, §2

With “Na[trans-Ru(DMSO)(C30H37Cl2N5O)Cl4] [Compound 20]” the IC50 [1] was 8.5 ± 0.3 µM, the mechanism of inhibition [2] was “non-competitive” and the Ki [2] was 15.3 µM. It also gave an IC50 ([2]; DTNB 0.06 mM) of 17 µM, an IC50 ([2]; DTNB 0.1 mM) of 15 µM and an IC50 ([2]; DTNB 2.5 mM) of 15 µM. The IC50 [3] was 8.1 ± 1.1 µM, the IC50 [4] was 9.2 ± 0.1 µM and the IC50 [5] was 6.1 ± 0.3 µM. The IC50 [6] was 9.6 ± 1.3 µM.
“Na[trans-Ru(DMSO)(C21H19Cl2N5O)Cl4] [Compound 16]” was tested, and the IC50 [1] was 20.4 ± 0.1 µM, the mechanism of inhibition [2] was “non-competitive” and the Ki [2] was 30.7 µM. For the same substance, the IC50 ([2]; DTNB 0.06 mM) was 24 µM, the IC50 ([2]; DTNB 0.1 mM) was 33 µM and the IC50 ([2]; DTNB 2.5 mM) was 33 µM. For the same substance, the IC50 [3] was greater than 30 µM, the IC50 [4] was 23 ± 0.5 µM and the IC50 [5] was 26.1 ± 5.5 µM. For the same substance, the IC50 [6] was 25 ± 7.1 µM.
